Laboratory results as given in article PMC4121215, “Cytotoxic Constituents from the Rhizomes of Curcuma zedoaria” (The Scientific World Journal, 2014).
Values after ≈ are worked out from the molar mass of the structure shown. “Also recorded” adds a separate entry of the source.

Assays:
PC-3 (prostate cancer) = experiment: MTT cytotoxicity assay, PC-3; assay type: cell-based; settings: for IC50: Homo sapiens, MTT, 72 h, mean ± SD of three replicates; for IC50 / SI (selectivity index) PC-3: isolated compounds; for antiproliferative/cytotoxic activity against PC-3 (in words): MTT assay; for SI (selectivity index) PC-3: IC50 HUVEC / IC50 PC-3
Protocol: (§1) The human cell lines MCF-7 (breast cancer), Ca Ski (cervical cancer), and HT-29 (colon cancer) were cultured as monolayer in RPMI 1640 growth media. HUVEC (human umbilical vein endothelial cells) and PC-3 (prostate cancer) cells were cultured in DMEM. All cells were purchased from the American Tissue Culture Collection (ATCC, USA) except for human umbilical vein endothelial cells (HUVEC) which were obtained from ScienCell Research Laboratories (Carlsbad, CA). All the media were supplemented with 10% v/v foetal bovine serum (FBS), 100 μg/mL penicillin/streptomycin, and 50 μg/mL amphotericin B. The cells were cultured in a 5% CO2 incubator at 37°C.
(§2) Cell viability was investigated using 3-(4, 5-dimethylthiazol-2-yl)-2, 5-diphenyltetrazolium bromide (MTT) assay. Cells were detached from the […] tissue culture flask when it achieved 80% confluency. The detached cells were pellet by centrifugation (1,000 rpm; 5 minutes). Cells (3.0 × 10^4 cells/mL) were seeded onto a 96-well microtiter plate (Nunc). The cells were incubated at 37°C CO2 incubator for 24 h to give adherent cells. The test compounds (1–100 μg/mL) were added onto the 96-well microtiter plate containing adherent cells. The untreated cells were incubated in 10% media containing 0.5% DMSO (without addition of any test compounds/extracts). This mixture was regarded as the negative control whereas doxorubicin as the positive control. The plates were incubated for 72 h at 37°C in a 5% CO2 incubator. After 72 h, the media were removed and 100 μL of fresh medium and 20 μL of MTT (Sigma, filter sterile, 5 mg/mL) were added to each well and further incubated for 4 hours (37°C) after which the media were substituted with 150 μL DMSO. The 96-well microtiter plates were then agitated at room temperature onto an incubator shaker to dissolve the formazan crystals. The absorbance (A) of the content of the plates was measured at 540 nm using a microplate reader. The percentage of inhibition of each test sample was calculated according to the following formula: Percentage of inhibition (%) = (A control − A sample)/A control × 100%. The average of three replicates was then obtained. The IC50 for each extract was extrapolated from the graphs of the percentage inhibition versus concentration of test agents. Cytotoxicity of each test agent is expressed as IC50 value. The IC50 value is the concentration of test agents that cause 50% inhibition or cell death, averaged from the three experiments. The selectivity index (SI) was also calculated as described by using the ratio between IC50 of the extract or compounds on normal cell lines (HUVEC) and IC50 of the tested extract or compounds on cancerous cell lines. Selectivity index (SI) values equal or greater than three were considered to have a high selectivity towards cancerous cells. An SI value denotes the selectivity of the sample to the tested cell lines.

[1] = system: HUVEC (human umbilical vein endothelial cells); experiment: cells; assay type: cell-based; settings: for IC50: Homo sapiens, HUVEC, isolated compounds, MTT, 72 h, normal cells; for toxicity towards normal cells HUVEC (in words): MTT assay
Protocol: as §1, §2

MCF-7 (breast cancer) = experiment: cells; assay type: cell-based; settings: for IC50: Homo sapiens, MCF7, MTT, 72 h, mean ± SD of three replicates; for IC50 / SI (selectivity index) MCF-7: isolated compounds; for SI (selectivity index) MCF-7: IC50 HUVEC / IC50 MCF-7; for antiproliferative/cytotoxic activity against MCF-7 (in words): MTT assay
Protocol: as §1, §2

HT-29 (colon cancer) = experiment: MTT cytotoxicity assay, HT-29; assay type: cell-based; settings: for IC50: Homo sapiens, HT-29, MTT, 72 h, mean ± SD of three replicates; for IC50 / SI (selectivity index) HT-29: isolated compounds; for antiproliferative/cytotoxic activity against HT-29 (in words): MTT assay; for SI (selectivity index) HT-29: IC50 HUVEC / IC50 HT-29
Protocol: as §1, §2

Ca Ski = system: Ca Ski; parameters: method as in PMID 21629182; settings: zerumin A isolated from Curcuma mangga; cited from earlier work
MCF-7 = system: MCF-7; parameters: method as in PMID 21629182; settings: zerumin A isolated from Curcuma mangga; cited from earlier work
Ca Ski (cervical cancer) = experiment: cells; assay type: cell-based; settings: for IC50: Homo sapiens, Ca-Ski, MTT, 72 h, mean ± SD of three replicates; for IC50 / SI (selectivity index) Ca Ski: isolated compounds; for SI (selectivity index) Ca Ski: IC50 HUVEC / IC50 Ca Ski
Protocol: as §1, §2

[2] = parameters: method as in PMID 23160092; settings: cited from earlier work
MCF-7 cells [3] = experiment: Phase contrast microscopy of treated MCF-7 cells; assay type: cell-based, human; settings: 48 h; 12.5 and 25 µg/mL; inverted phase contrast microscope 400x
Protocol: Briefly, MCF-7 cells (5 × 10^5) were grown in a tissue culture dishes (60 mm) for overnight. Then, the cells were treated with curcumenone (3) and curcumenol (5) at a concentration of 12.5 and 25 μg/mL, respectively. After 48 hours, cells were gently rinsed with PBS. The observation of morphological changes of apoptotic MCF-7 cells after treatment with the two bioactive compounds was viewed using an inverted phase contrast microscope (Leica DMI 3000B, Germany) at 400x magnification according to the method.

MCF-7 cells [4] = experiment: Hoechst 33342/PI double staining, fluorescence microscopy; assay type: cell-based, human; settings: 48 h, 12.5 and 25 μg/mL
Protocol: The morphological features of MCF-7 cells upon treatment by the test compounds also observed by double staining of Hoechst 33342/PI assay using the inverted fluorescence microscope (Leica, DM16000B). Briefly, 5 × 10^5 cells were grown overnight and treated with 12.5 and 25 μg/mL of curcumenone (3) and curcumenol (5). After treatment of cells with the test compounds for 48 hours, both floating and adherent cells were collected by centrifugation and washed once with cold PBS. Then, Hoechst 33342 solutions (10 μg/mL) were added and incubated at 37°C for 7 minutes. The cells were then stained with PI (2.5 μg/mL) and further incubated in the dark for 15 minutes. Cell suspension (100 μL) was mounted onto glass microscope slides and observed under fluorescence microscope using UV/488 dual excitation (460 nm emission of Hoechst 33342, 575 nm emission of PI). Approximately a total of 200 target cells were calculated and the morphological characteristics of the nuclei were analyzed for quantification of apoptosis and necrosis. The percentage of apoptotic, necrotic, and dead cells was determined according to the formula described by.

[5] = system: liver alcohol dehydrogenase; parameters: method as in PMID 23160092; settings: cited from earlier work
[6] = parameters: method as in PMID 9871681; settings: cited from earlier work
P450 = system: P450; parameters: method as in PMID 20148399; settings: time- and NADPH-dependent inhibitions; cited from earlier work
[7] = parameters: method as in PMID 19043244; settings: isolated from the rhizomes of Curcuma zedoaria; cited from earlier work

Compound | IC50 (PC-3 (prostate cancer)) [µg/mL] | antiproliferative/cytotoxic activity against PC-3 (in words) (PC-3 (prostate cancer)) | SI (selectivity index) PC-3 (PC-3 (prostate cancer)) | IC50 [1] [µg/mL] | IC50 (MCF-7 (breast cancer)) [µg/mL] | SI (selectivity index) MCF-7 (MCF-7 (breast cancer)) | IC50 (HT-29 (colon cancer)) [µg/mL] | antiproliferative/cytotoxic activity against HT-29 (in words) (HT-29 (colon cancer)) | SI (selectivity index) HT-29 (HT-29 (colon cancer)) | toxicity towards normal cells HUVEC (in words) [1] | IC50 (Ca Ski (cervical cancer)) [µg/mL] | SI (selectivity index) Ca Ski (Ca Ski (cervical cancer)) | antiproliferative/cytotoxic activity against MCF-7 (in words) (MCF-7 (breast cancer)) | morphological changes of MCF-7 cells (MCF-7 cells [3]) | apoptosis induction (MCF-7 cells [4]) | other results
C=C1CC[C@H]2C(C)(C)CCC[C@]2(C)[C@H]1CC=C(C=O)CC(=O)O (stereo in doubt) [Compound 16, zerumin A] | 21.9 ± 1.6 (≈ 68.8 µM) | moderate inhibitory activity | 1.2 | 25.8 ± 1.9 (≈ 81 µM) | 22.3 ± 1.1 (≈ 70 µM) | 1.2 | 17.4 ± 2 (≈ 54.6 µM) | moderate inhibitory activity | 1.5 | – | – | – | – | – | – | IC50 Ca Ski (Ca Ski): 8.7 ± 0.29 µg/mL (≈ 27.3 µM); IC50 MCF-7 (MCF-7): 14.2 ± 0.06 µg/mL (≈ 44.6 µM)
CC(=O)CC[C@@H]1[C@H]2CC(=C(C)C)C(=O)C[C@@]12C [Compound 3, curcumenone] | 39.8 ± 4.2 (≈ 170 µM) | – | 1.3 | 50 ± 8.6 (≈ 213 µM) | 8.3 ± 1 (≈ 35.4 µM) | 6.0 | 43.3 ± 6.2 (≈ 185 µM) | – | 1.2 | slight toxicity | > 100 | 0.5 | strong antiproliferative activity | cell shrinkage, loss of contact with adjacent cells, and decrease in cell numbers | induction of apoptotic death occurred | toxicity towards normal cells HUVEC (in words) ([1]; listed as curcumenone): low toxicity; antiproliferative/cytotoxic activity against Ca Ski (in words) (Ca Ski (cervical cancer); MTT assay): did not show any antiproliferative activity; effect on alcohol-treated mice [2]: protective effect; effect on liver alcohol dehydrogenase activity [5]: acceleration of liver alcohol dehydrogenase activity; effect on D-galactosamine/lipopolysaccharide-induced acute liver injury [6]: effective protective effect
CC1=C[C@]2(O)O[C@@]3(CC2=C(C)C)[C@@H](C)CC[C@@H]13 [Compound 5, curcumenol] | 17.3 ± 1.2 (≈ 73.8 µM) | moderate inhibitory activity | 1.5 | 25.9 ± 1.4 (≈ 111 µM) | 9.3 ± 0.3 (≈ 39.7 µM) | 2.8 | 24.8 ± 2.7 (≈ 106 µM) | moderate inhibitory activity | 1.0 | low toxicity | 18.5 ± 1 (≈ 78.9 µM) | 1.4 | strong antiproliferative activity | cell shrinkage, loss of contact with adjacent cells, and decrease in cell numbers | induction of apoptotic death occurred; also recorded: better inducing apoptosis capacity in comparison to curcumenone (3) | mechanism-based P450 inhibition (P450): not a mechanism-based inhibitor
C/C1=C\CC[C@@]2(C)O[C@@H]2CC(C)(C)/C=C/C1=O [Compound 8, zerumbone epoxide] | 10.8 ± 1.9 (≈ 46.1 µM) | good cytotoxic effect | 1.3 | 14.2 ± 1.1 (≈ 60.6 µM) | 24.1 ± 0.1 (≈ 103 µM) | 0.6 | 13.7 ± 2.7 (≈ 58.5 µM) | good cytotoxic effect | 1.0 | slight toxicity | 34.5 ± 0.6 (≈ 147 µM) | 0.4 | – | – | – | cytotoxic effects [7]: possessed cytotoxic effects
CC1=CCCC2(C)OC2C(=O)c2c(C)coc2C1 (stereo not drawn) [Compound 9, zederone] | 27 ± 1.9 (≈ 110 µM) | moderate inhibitory activity | 1.6 | 42.1 ± 2.7 (≈ 171 µM) | > 100 | 0.4 | 19.1 ± 2.5 (≈ 77.5 µM) | moderate inhibitory activity | 2.2 | – | > 100 | 0.4 | – | – | – | –
